What was measured:
MDA-MB-231 = test: Cytotoxicity against human MDA-MB-231 cells assessed as inhibition of cell viability incubated for 72 hrs by SRB assay; assay type: functional, cell-based; conditions: MDA-MB-231, 72 h
HCC1806 = test: Cytotoxicity against human HCC1806 cells assessed as inhibition of cell viability incubated for 72 hrs by SRB assay; assay type: functional, cell-based; conditions: HCC1806, 72 h
[1] = Stability in human plasma assessed as half life at 100 uM by LC-MS/MS analysis; assay type: ADME, cell-free

half-life at 100 µM [1]	Compound	IC50 (MDA-MB-231)	IC50 (HCC1806)
	C=C1C(=O)[C@@]23C(=O)[C@@H]4OC[C@]5(C(=O)CCC(C)(C)[C@@H]45)[C@@H]2CC[C@@H]1[C@H]3OC(=O)C12CC3CC(CC(C3)C1)C2	3260 nM	5590 nM
	C=C1C(=O)[C@@]23C(=O)[C@@H]4OC[C@]5(C=CCC(C)(C)[C@@H]45)[C@@H]2CC[C@@H]1[C@H]3OC(=O)c1ccc(N(CCCl)CCCl)cc1	2210 nM	3020 nM
	C=C1C(=O)[C@]23[C@H](OC(=O)C45CC6CC(CC(C6)C4)C5)[C@H]1CC[C@H]2[C@@]12CO[C@]3(O)[C@@H](O)[C@@H]1C(C)(C)CCC2=O	1430 nM	1910 nM
1.45 h	C=C1C(=O)[C@]23[C@H](O)[C@H]1CC[C@H]2[C@@]12CO[C@]3(O)[C@@H](O)[C@@H]1C(C)(C)CC[C@@H]2O [ORIDONIN]	5310 nM	12600 nM
	C=C1C(=O)[C@@]23C(=O)[C@@H]4OC[C@]5(C(=O)CCC(C)(C)[C@@H]45)[C@@H]2CC[C@@H]1[C@H]3OC(=O)Cc1ccc(OC)c(OC)c1	1810 nM	2580 nM
	C=C1C(=O)[C@]23[C@H](OC(=O)Cc4ccc(OC)cc4)[C@H]1CC[C@H]2[C@]12C=CCC(C)(C)[C@H]1[C@H](O)[C@@]3(O)OC2	> 10000 nM	> 10000 nM
	C=C1C(=O)[C@@]23C(=O)[C@@H]4OC[C@]5(C(=O)CCC(C)(C)[C@@H]45)[C@@H]2CC[C@@H]1[C@H]3OC(=O)c1ccc(N(CCCl)CCCl)cc1	5700 nM	> 10000 nM
	C=C1C(=O)[C@@]23C(=O)[C@@H]4OC[C@]5(C(=O)CCC(C)(C)[C@@H]45)[C@@H]2CC[C@@H]1[C@H]3OC(=O)Cc1ccc(OC)cc1	3060 nM	4600 nM
	C=C1C(=O)[C@]23[C@H](OC(=O)Cc4cc(OC)c(OC)c(OC)c4)[C@H]1CC[C@H]2[C@@]12CO[C@]3(O)[C@@H](O)[C@@H]1C(C)(C)CCC2=O	> 10000 nM	> 10000 nM
	C=C1C(=O)[C@]23[C@H](OC(=O)Cc4ccc(OC)c(OC)c4)[C@H]1CC[C@H]2[C@]12C=CCC(C)(C)[C@H]1[C@H](O)[C@@]3(O)OC2	> 10000 nM	> 10000 nM
	C=C1C(=O)[C@]23[C@H](OC(=O)Cc4ccc(OC)cc4)[C@H]1CC[C@H]2[C@@]12CO[C@]3(O)[C@@H](O)[C@@H]1C(C)(C)CCC2=O	> 10000 nM	> 10000 nM
	C=C1C(=O)[C@]23[C@H](OC(=O)Cc4ccccc4Br)[C@H]1CC[C@H]2[C@@]12CO[C@]3(O)[C@@H](O)[C@@H]1C(C)(C)CCC2=O	3580 nM	7120 nM
	C=C1C(=O)[C@@]23C(=O)[C@@H]4OC[C@]5(C=CCC(C)(C)[C@@H]45)[C@@H]2CC[C@@H]1[C@H]3OC(=O)C12CC3CC(CC(C3)C1)C2	3660 nM	5510 nM
	C=C1C(=O)[C@]23[C@H](OC(=O)/C=C/c4ccc(N(C)C)cc4)[C@H]1CC[C@H]2[C@@]12CO[C@]3(O)[C@@H](O)[C@@H]1C(C)(C)CCC2=O	1790 nM	2770 nM
	C=C1C(=O)[C@]23[C@H](OC(=O)C45CC6CC(CC(C6)C4)C5)[C@H]1CC[C@H]2[C@@]12CO[C@]3(O)[C@@H](O)[C@@H]1C(C)(C)CC[C@@H]2OC(C)=O	550 nM	1480 nM
	C=C1C(=O)[C@]23[C@H](OC(=O)Cc4cc(OC)c(OC)c(OC)c4)[C@H]1CC[C@H]2[C@]12C=CCC(C)(C)[C@H]1[C@H](O)[C@@]3(O)OC2	> 10000 nM	> 10000 nM
	C=C1C(=O)[C@@]23C(=O)[C@@H]4OC[C@]5(C(=O)CCC(C)(C)[C@@H]45)[C@@H]2CC[C@@H]1[C@H]3OC(=O)Cc1cc(OC)c(OC)c(OC)c1	2600 nM	5070 nM

half-life at 100 µM [1]	Compound	IC50 (MDA-MB-231)	IC50 (HCC1806)
	C=C1C(=O)[C@@]23C(=O)[C@@H]4OC[C@@]5([C@H]4C(C)(C)CC[C@@H]5O)[C@@H]2CC[C@@H]1[C@H]3OC(=O)C12CC3CC(CC(C3)C1)C2	1500 nM	2130 nM
	C=C1C(=O)[C@]23[C@H](OC(=O)C45CC6CC(CC(C6)C4)C5)[C@H]1CC[C@H]2[C@]12C=CCC(C)(C)[C@H]1[C@H](O)[C@@]3(O)OC2	2420 nM	2610 nM
	C=C1C(=O)[C@]23[C@H](OC(=O)Cc4ccc(N(CCCl)CCCl)cc4)[C@H]1CC[C@H]2[C@@]12CO[C@]3(O)[C@@H](O)[C@@H]1C(C)(C)CCC2=O	7290 nM	> 10000 nM
	C=C1C(=O)[C@@]23C(=O)[C@@H]4OC[C@]5(C(=O)CCC(C)(C)[C@@H]45)[C@@H]2CC[C@@H]1[C@H]3OC(=O)Cc1ccccc1Br	> 10000 nM	> 10000 nM
	C=C1C(=O)[C@]23[C@H](O)[C@H]1CC[C@H]2[C@@]12CO[C@]3(O)[C@@H](O)[C@@H]1C(C)(C)CCC2=O	2070 nM	3560 nM
	C=C1C(=O)[C@]23[C@H](OC(=O)c4ccc(N(CCCl)CCCl)cc4)[C@H]1CC[C@H]2[C@@]12CO[C@]3(O)[C@@H](O)[C@@H]1C(C)(C)CCC2=O	1720 nM	3640 nM
	C=C1C(=O)[C@@]23C(=O)[C@@H]4OC[C@]5([C@@H](OC(C)=O)CCC(C)(C)[C@@H]45)[C@@H]2CC[C@@H]1[C@H]3OC(=O)C12CC3CC(CC(C3)C1)C2	1410 nM	2390 nM
	C=C1C(=O)[C@]23[C@H](O)[C@H]1CC[C@H]2[C@]12C=CCC(C)(C)[C@H]1[C@H](O)[C@@]3(O)OC2	870 nM	910 nM
	C=C1C(=O)[C@@]23C(=O)[C@@H]4OC[C@]5(C=CCC(C)(C)[C@@H]45)[C@@H]2CC[C@@H]1[C@H]3O	2780 nM	4010 nM
	C=C1C(=O)[C@]23[C@H](OC(=O)c4ccc(N(CCCl)CCCl)cc4)[C@H]1CC[C@H]2[C@@]12CO[C@]3(O)[C@@H](O)[C@@H]1C(C)(C)CC[C@@H]2O	1670 nM	1320 nM
	C=C1C(=O)[C@]23[C@H](OC(=O)c4ccc(N(CCCl)CCCl)cc4)[C@H]1CC[C@H]2[C@]12C=CCC(C)(C)[C@H]1[C@H](O)[C@@]3(O)OC2	1090 nM	1400 nM
	C=C1C(=O)[C@]23[C@H](O)[C@H]1CC[C@H]2[C@@]12CO[C@@]3(O)[C@@H](O)[C@@H]1C(C)(C)CC[C@@H]2OC(C)=O	2490 nM	2680 nM
	C=C1C(=O)[C@@]23C(=O)[C@@H]4OC[C@]5(C=CCC(C)(C)[C@@H]45)[C@@H]2CC[C@@H]1[C@H]3OC(=O)Cc1cc(OC)c(OC)c(OC)c1	3820 nM	5540 nM
	C=C1C(=O)[C@@]23C(=O)[C@@H]4OC[C@]5(C(=O)CCC(C)(C)[C@@H]45)[C@@H]2CC[C@@H]1[C@H]3OC(=O)Cc1ccc(N(CCCl)CCCl)cc1	11400 nM	> 10000 nM
	C=C1C(=O)[C@]23[C@H](OC(=O)Cc4ccc(OC)c(OC)c4)[C@H]1CC[C@H]2[C@@]12CO[C@]3(O)[C@@H](O)[C@@H]1C(C)(C)CCC2=O	8430 nM	> 10000 nM
	C=C1C(=O)[C@@]23C(=O)[C@@H]4OC[C@@]5([C@H]4C(C)(C)CC[C@@H]5O)[C@@H]2CC[C@@H]1[C@H]3OC(=O)c1ccc(N(CCCl)CCCl)cc1	1830 nM	1610 nM

From ChEMBL document CHEMBL6134781, “In vitro identification of oridonin hybrids as potential anti-TNBC agents inducing cell cycle arrest and apoptosis by regulation of p21, γH2AX and cleaved PARP” (RSC Med Chem, 2024)
